Publication PMC4926073, “Absorption and Transport of Sea Cucumber Saponins from Apostichopus japonicus” (Marine Drugs, 2016)
Read-outs that look alike come from different tables or passages of the source.

Assays:
in vivo [1] = conditions: male, Wistar, rat, iv, 20 mg/kg
[2] = Single-pass intestinal perfusion in rats; conditions: for concentration-dependent changes in permeability: 1, 5, 25 μg/mL
Protocol: (§1) Data were expressed as the means ± SD of three determinations: Peff = −Q ln [Cout/Cin]/2πrl(2)
(§2) In which Cin is the inlet concentration and Cout is the outlet concentration of compound, which is corrected for volume change in the segment using phenol red concentration in the inlet and outlet tubing. Q is the flow rate (0.2 mL/min), r is the rat intestinal radius (0.18 cm), and l is the length of the segment [32].
(§3) The rats were anaesthetized with an intra-abdominal injection of 10% chloral hydrate at a dose of 5 mL/kg. The enterocoelia of the rat was dissected by a 3–4 cm midline length, a segment of intestine about 10 cm long was separated and washed with saline. Silicone tubing was inserted into both sides of the segment of intestine and a peristaltic pump was connected to the proximal side of the tube. A pledget with saline was added onto the surgical area to avoid loss of fluid. The segment was cleared with 37 °C saline firstly, then blank K-R buffer solution was infused at the inlet and blank perfusate was collected at the outlet. The segment was infused with perfusate containing phenol red and different concentrations of sea cucumber saponins (1, 5, and 25 μg/mL) at a flow rate of 2 mL/min. Then the rate was reduced to 0.2 mL/min for 30 min until steady-state. Samples were obtained from the outlet of the segment every 15 min and stored at −20 °C for analysis. Different concentrations of sea cucumber saponins were perfused to highlight the absorption mechanism of sea cucumber saponins, which were investigated by the concentration-dependent change of the permeability values. 400 μg/mL verapamil was added to the perfusion solution containing 5 μg/mL sea cucumber saponins and 20 μg/mL phenol red to investigate whether the intestinal absorption of sea cucumber saponins were affected by P-gp.

[3] = Freeze-thaw, short-term and long-term stability in perfusate (Krebs-Ringer buffer solution); conditions: for Short-Term Stability, Accuracy (%): ambient temperature 24 h; for Long-Term Stability, Accuracy (%): ambient temperature 5 d
[4] = In vivo pharmacokinetics in rats after oral administration; conditions: 20 mg/kg
Caco-2 cell monolayer [5] = conditions: human
[6] = Freeze-thaw, short-term and long-term stability in rat plasma; conditions: for Short-Term Stability, Accuracy (%): ambient temperature 24 h; for Long-Term Stability, Accuracy (%): ambient temperature 5 d
in vitro = conditions: human; for recovery: Caco-2, Recovery (AP + BL chambers + cell monolayer)
Caco-2 cell monolayer [7] = assay: Transepithelial transport across Caco-2 cell monolayer
[8] = rat
Protocol: as §1, §2, §3

[9] = rat, in vivo, 20 mg/kg
in vivo [10] = conditions: rat
Protocol: as §1, §2, §3

[11] = rat; remark: listed apart in the source
[12] = nominal conc. 100.00 ng/mL, frozen at −20 °C 24 h, thawed at ambient temperature
[13] = range over freeze-thaw, short-term, long-term and both compounds

CO[C@@H]1[C@@H](O)[C@H](O[C@@H]2[C@@H](O)[C@H](O[C@H]3[C@H](O)[C@@H](O)[C@H](O[C@H]4[C@H](O[C@H]5CC[C@]6(C)C7=C[C@H](O)[C@]89C(=O)O[C@@](C)(CCCC(C)C)[C@@]8(O)CC[C@@]9(C)C7CCC6C5(C)C)OC[C@@H](OS(=O)(=O)O)[C@@H]4O)O[C@@H]3C)O[C@H](CO)[C@H]2O)O[C@H](CO)[C@H]1O (stereo partly shown) [Echinoside A]
AUC (in vivo [1]): 16400 ± 450 ng·h/mL | Cmax (in vivo [1]): 4000 ± 440 ng/mL | Tmax (in vivo [1]): 4.8 min | half-life (in vivo [1]): 511 ± 19.2 min | concentration-dependent changes in permeability ([2]; rat single-pass intestinal perfusion): not found | change in permeability when verapamil was added to the perfusate ([2]; rat single-pass intestinal perfusion, verapamil 400 μg/mL): No significant increase | Papp ([2]; rat, other: single-pass intestinal perfusion): 25 ×10⁻⁶ cm/s | Short-Term Stability, Accuracy (%) ([3]; nominal conc. 100.00 ng/mL): 90.8% | Long-Term Stability, Accuracy (%) ([3]; nominal conc. 100.00 ng/mL): 89.2% | Freeze-Thaw Stability, Accuracy (%) [3, 12]: 91.6% | Freeze-Thaw Stability, Accuracy (%) ([3]; nominal conc. 1000.00 ng/mL): 91.9% | Short-Term Stability, Accuracy (%) ([3]; nominal conc. 1000.00 ng/mL): 91.3% | Long-Term Stability, Accuracy (%) ([3]; nominal conc. 1000.00 ng/mL): 92.6% | Freeze-Thaw Stability, Accuracy (%) ([3]; nominal conc. 5000.00 ng/mL): 93.5% | Short-Term Stability, Accuracy (%) ([3]; nominal conc. 5000.00 ng/mL): 94.4% | Long-Term Stability, Accuracy (%) ([3]; nominal conc. 5000.00 ng/mL): 91.1% | stability in perfusate under three conditions [3, 13]: 88.2%–94.8 | bioavailability ([4]; male, Wistar, rat, in vivo): 59% | AUC ([4]; male, Wistar, rat, in vivo, po): 9270 ± 390 ng·h/mL | Cmax ([4]; male, Wistar, rat, in vivo, po): 910 ± 20 ng/mL | half-life ([4]; male, Wistar, rat, in vivo, po, T1/2, rat): 419 min | Tmax ([4]; male, Wistar, rat, in vivo, po, Tmax): ≤ 3 h | time at which detected in rat plasma after oral administration ([4]; oral): 1 h | T1/2 ([4]; rat, oral): 6.9 ± 0.32 h | max value of the concentration in the plasma ([4]; rat, oral): 910 ng/mL | Papp AP-BL (Caco-2 cell monolayer [5]): 4.04 ± 0.39 × 10^−6, cm·s^−1 | Papp BL-AP (Caco-2 cell monolayer [5]): 5.33 ± 0.70 × 10^−6, cm·s^−1 | Short-Term Stability, Accuracy (%) ([6]; nominal conc. 100.00 ng/mL): 95.4% | Long-Term Stability, Accuracy (%) ([6]; nominal conc. 100.00 ng/mL): 97.2% | Freeze-Thaw Stability, Accuracy (%) [6, 12]: 94.4% | Freeze-Thaw Stability, Accuracy (%) ([6]; nominal conc. 1000.00 ng/mL): 96.7% | Short-Term Stability, Accuracy (%) ([6]; nominal conc. 1000.00 ng/mL): 96.0% | Long-Term Stability, Accuracy (%) ([6]; nominal conc. 1000.00 ng/mL): 102.1% | Freeze-Thaw Stability, Accuracy (%) ([6]; nominal conc. 5000.00 ng/mL): 98.9% | Short-Term Stability, Accuracy (%) ([6]; nominal conc. 5000.00 ng/mL): 102.4% | Long-Term Stability, Accuracy (%) ([6]; nominal conc. 5000.00 ng/mL): 100.3% | stability in plasma under three conditions [6, 13]: 93.4%–102.4 | Papp A→B (in vitro; Caco-2): 3.96 ± 0.55 ×10⁻⁶ cm/s | Papp B→A (in vitro; Caco-2): 5.38 ± 0.81 ×10⁻⁶ cm/s | recovery (in vitro; time 60 min): 97.4 ± 2.76% | recovery (in vitro; time 90 min): 98.2 ± 1.97% | recovery (in vitro; time 120 min): 96.6 ± 2.33% | recovery (in vitro; time 150 min): 96.5 ± 2.04% | AP Chamber (%) recovered (Caco-2 cell monolayer [7]; time 60 min): 82.14 ± 2.85% | BL Chamber (%) recovered (Caco-2 cell monolayer [7]; time 60 min): 1.04 ± 0.12% | Cell Fraction (%) recovered (Caco-2 cell monolayer [7]; time 60 min): 14.22 ± 1.14% | AP Chamber (%) recovered (Caco-2 cell monolayer [7]; time 90 min): 81.63 ± 2.04% | BL Chamber (%) recovered (Caco-2 cell monolayer [7]; time 90 min): 1.51 ± 0.11% | Cell Fraction (%) recovered (Caco-2 cell monolayer [7]; time 90 min): 15.05 ± 1.29% | AP Chamber (%) recovered (Caco-2 cell monolayer [7]; time 120 min): 80.25 ± 2.67% | BL Chamber (%) recovered (Caco-2 cell monolayer [7]; time 120 min): 1.90 ± 0.20% | Cell Fraction (%) recovered (Caco-2 cell monolayer [7]; time 120 min): 14.43 ± 1.24% | AP Chamber (%) recovered (Caco-2 cell monolayer [7]; time 150 min): 79.38 ± 2.21% | BL Chamber (%) recovered (Caco-2 cell monolayer [7]; time 150 min): 2.36 ± 0.21% | Cell Fraction (%) recovered (Caco-2 cell monolayer [7]; time 150 min): 14.78 ± 0.92% | transport mechanism across Caco-2 monolayer (Caco-2 cell monolayer [7]; with and without P-gp inhibitor verapamil 100 μM): transported by passive diffusion without the participation of P-gp

C=C(C)CCCC1(C)OC(=O)C23CC=C4C(CCC5C4(C)CCC(OC4OCC(OC6OC(CO)C(O)C(OC7OC(CO)C(O)C(OC)C7O)C6O)C(O)C4OC4OC(C)C(OC6OCC(O)C(OC7OC(CO)C(O)C(OC)C7O)C6O)C(O)C4O)C5(C)C)C2(C)CC(=O)C13 (stereo not shown) [Holotoxin A1]
AUC (in vivo [1]): 6530 ± 150 ng·h/mL | Cmax (in vivo [1]): 2870 ± 170 ng/mL | Tmax (in vivo [1]): 4.8 min | half-life (in vivo [1]): 264 ± 3.6 min | concentration-dependent changes in permeability [2]: not found | change in permeability when verapamil was added to the perfusate [8]: No significant increase | detection in the plasma after oral administration [9]: not detected | Papp (in vivo [10]): 2.67 ×10⁻⁶ cm/s | Papp AP-BL (Caco-2 cell monolayer [5]): <0.83 × 10^−6, cm·s^−1 | PappAB (Papp AP to BL) (Caco-2 cell monolayer [5]): less than 0.83 × 10^−6 cm·s^−1 | Papp A→B (in vitro; Caco-2): < 0.83 ×10⁻⁶ cm/s | Papp B→A (in vitro; Caco-2): < 0.83 ×10⁻⁶ cm/s | stability in plasma under three conditions [11]: 93.4%–102.4 | AP Chamber (%) recovered (Caco-2 cell monolayer [7]; time 60 min): 97.66 ± 2.02% | AP Chamber (%) recovered (Caco-2 cell monolayer [7]; time 90 min): 96.56 ± 1.89% | AP Chamber (%) recovered (Caco-2 cell monolayer [7]; time 120 min): 95.46 ± 1.72% | AP Chamber (%) recovered (Caco-2 cell monolayer [7]; time 150 min): 95.90 ± 2.27% | BL Chamber (%) recovered (Caco-2 cell monolayer [7]; time 150 min): <0.2% | Cell Fraction (%) recovered (Caco-2 cell monolayer [7]; time 150 min): <0.2%

CC(C)NCC(O)COc1cccc2ccccc12 (stereo not shown) [propranolol, reference compound]
Papp A→B at 150 min, 20 µM (in vitro; Caco-2): 26.1 ± 1.2 ×10⁻⁶ cm/s
